According to PMC6355894, “Cryo-EM structure of the essential ribosome assembly AAA-ATPase Rix7” (Nature Communications, 2019):

Tests used:
[1] = molecular target: T1, CT Rix7 (Thermochaetoides thermophila, UniProt G0RZG1, E303Q/E602Q); assay: cryo-EM structure of the complex ([…] A); settings: co-purified nucleotide, no ATP added; 5 mM MgCl2, pH 8; nucleotide-binding pockets of D1 and D2 AAA domains; ATP geometry restrained to reference structure
T1 construct: gene CTHT_0002840; full-length (NTD residues 1-192 not seen in map), codon-optimised, pET24b, C-terminal His6, expressed in E. coli BL21(DE3)*; asymmetric homohexamer

[2] = molecular target: Chaetomium thermophilum Rix7 double Walker B mutant (CT Rix7 E303Q/E602Q) (Chaetomium thermophilum); assay: cryo-EM structure; CT Rix7 E303Q/E602Q at ~0.6 mg/ml after SEC in Buffer A (20 mM Tris-HCl pH 8, 150 mM NaCl, 5 mM MgCl2, 0.5 mM DTT); no ATP and no substrate added; no symmetry imposed (C1); 4.5 Å

T1 sequence (G0RZG1 entry or part of it E303Q/E602Q): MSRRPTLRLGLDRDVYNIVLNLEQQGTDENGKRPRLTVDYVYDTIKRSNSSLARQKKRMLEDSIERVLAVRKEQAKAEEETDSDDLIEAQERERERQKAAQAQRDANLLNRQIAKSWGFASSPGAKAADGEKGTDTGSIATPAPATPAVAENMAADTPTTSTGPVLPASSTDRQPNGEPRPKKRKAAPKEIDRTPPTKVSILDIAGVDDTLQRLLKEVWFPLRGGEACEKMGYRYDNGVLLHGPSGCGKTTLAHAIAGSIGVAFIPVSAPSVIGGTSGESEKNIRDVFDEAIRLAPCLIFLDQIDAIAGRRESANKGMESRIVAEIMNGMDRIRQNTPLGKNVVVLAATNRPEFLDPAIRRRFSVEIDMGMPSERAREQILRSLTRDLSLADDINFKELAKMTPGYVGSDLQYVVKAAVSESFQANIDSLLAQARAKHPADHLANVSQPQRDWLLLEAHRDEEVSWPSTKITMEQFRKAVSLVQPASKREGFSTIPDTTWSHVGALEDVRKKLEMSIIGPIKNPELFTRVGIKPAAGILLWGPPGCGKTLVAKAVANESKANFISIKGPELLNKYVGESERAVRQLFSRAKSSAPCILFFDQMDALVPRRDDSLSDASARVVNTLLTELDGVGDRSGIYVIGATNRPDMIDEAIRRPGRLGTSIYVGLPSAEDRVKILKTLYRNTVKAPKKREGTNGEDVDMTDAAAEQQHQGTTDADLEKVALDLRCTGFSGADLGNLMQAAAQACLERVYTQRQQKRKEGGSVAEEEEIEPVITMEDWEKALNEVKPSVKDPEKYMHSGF

| Compound | cryo-EM structure of the complex (4.5 A) [1] | stoichiometry N [2] |
| --- | --- | --- |
| Nc1ncnc2c1ncn2[C@@H]1O[C@H](COP(=O)(O)OP(=O)(O)OP(=O)(O)O)[C@@H](O)[C@H]1O [ATP] | In the D1 AAA domain, ATP is present in the nucleotide pockets of all six protomers |  |
| Chaetomium thermophilum Rix7 double Walker B mutant (CT Rix7 E303Q/E602Q) (enzyme) |  | 6 |
